Here are results for 35 compounds from patent publication US11505548B2, “Heterocyclic compounds and their use for treatment of helminthic infections and diseases” (Celgene Corporation, priority 2019, dated 2022).

This assay relates to Onchocerca gutturosa Adult Male Worms. Nature of the assay: Onchocerciasis in vitro screening model, worm motility score. The note with it: read-out: O. gutturosa activity level (IC50 or MED). The format is cell-based.
The mark [1] stands for this setting: Onchocerca gutturosa, Table 1 O. gutturosa, levels A/B/C, motility or MTT readout not specified.
[2] abbreviates: in vitro, Onchocerca gutturosa adult male worms, class A/B/C.

Structures are written as SMILES. pIC50: −log10 of the molar value. Like-named read-outs stand apart in the source and are kept apart here.

On to `CC(C)Oc1cnc(-c2nsc(Nc3ncccc3N3CCCC3=O)n2)cc1C(=O)N(C)C` [Compound 194, 5-isopropoxy-N,N-dimethyl-2-(5-(3-(2-oxopyrrolidin-1-yl)pyridin-2-ylamino)-1,2,4-thiadiazol-3-yl)isonicotin-amide], for which the pIC50 under setting [1] is 5.30 to 6.30. In the case of `Cc1cccnc1Nc1nc(-c2ccc(S(=O)(=O)C3CCN(C)CC3)cn2)ns1` [Compound 100, 3-(5-(1-methylpiperidin-4-ylsulfonyl)pyridin-2-yl)-N-(3-methylpyridin-2-yl)-1,2,4-thiadiazol-5-amine], the pIC50 under setting [1] is 6.30 to 6.70. As to `CC(=O)N(C)c1cccnc1Nc1nc(-c2cc(C(C)C)c(C)cn2)ns1` [Compound 223, N-(2-(3-(4-isopropyl-5-methylpyridin-2-yl)-1,2,4-thiadiazol-5-ylamino)pyridin-3-yl)-N-methyl-acetamide], the pIC50 under setting [2] is 6.30 to 6.70.

Turning to `Cc1cccnc1Nc1nc(-c2cnc(OC(C)C)cn2)ns1` [Compound 124, 3-(5-isopropoxy-pyrazin-2-yl)-N-(3-methyl-pyridin-2-yl)-1,2,4-thiadiazol-5-amine], the pIC50 under setting [1] was 6.30 to 6.70.

As for `CC(C)c1cccnc1Nc1nc(-c2ccc(OC3CCN(C4CC4)CC3(F)F)cn2)ns1` (centres unmarked) [Compound 87, 3-(5-(1-cyclo-propyl-3,3-difluoro-piperidin-4-yloxy)pyridin-2-yl)-N-(3-isopropylpyridin-2-yl)-1,2,4-thiadiazol-5-amine], under setting [1], the pIC50 was greater than 6.70. Take `COc1ccc(-c2nsc(Nc3ccc(C4CCCC4)cn3)n2)nc1` [Compound 68, N-(5-cyclopentyl-pyridin-2-yl)-3-(5-methoxypyridin-2-yl)-1,2,4-thiadiazol-5-amine]: the pIC50 under setting [1] is 6.30 to 6.70.

In the case of `Cc1cccnc1Nc1nc(-c2ccc(OC3CCOCC3)cn2)no1` [Compound 16, N-(3-methyl-pyridin-2-yl)-3-(5-(tetrahydro-2H-pyran-4-yloxy)pyridin-2-yl)-1,2,4-oxadiazol-5-amine], the pIC50 under setting [1] is greater than 6.70. Take `Cc1cccnc1Nc1nc(-c2cc(C#N)c(OC(C)C)cn2)ns1` [Compound 200, 5-isopropoxy-2-(5-(3-methylpyridin-2-ylamino)-1,2,4-thiadiazol-3-yl)isonicotino-nitrile]: the pIC50 under setting [2] is 5.30 to 6.30. On to `CC(C)Oc1ccc(-c2nsc(Nc3ncccc3N(C)C(=O)C3CC3)n2)nc1` [Compound 170, N-(2-(3-(5-isopropoxy-pyridin-2-yl)-1,2,4-thiadiazol-5-ylamino)pyridin-3-yl)-N-methylcyclo-propanecarbox-amide], for which the pIC50 under setting [1] was 6.30 to 6.70. Regarding `CC(=O)N(C)c1cc(C(F)(F)F)cnc1Nc1nc(-c2cc3c(cn2)N(C)CC3)ns1` [Compound 249, N-methyl-N-(2-(3-(1-methyl-2,3-dihydro-1H-pyrrolo[2,3-c]pyridin-5-yl)-1,2,4-thiadiazol-5-ylamino)-5-(trifluoromethyl)pyridin-3-yl)acetamide], the pIC50 under setting [2] was 6.30 to 6.70. For the compound `CNc1cccnc1Nc1nc(-c2cc(C)ccn2)ns1` [Compound 23, N3-methyl-N2-(3-(4-methylpyridin-2-yl)-1,2,4-thiadiazol-5-yl) pyridine-2,3-diamine], the pIC50 under setting [1] is greater than 6.70. Consider `COc1cccnc1Nc1nc(-c2ccc(OC3CC(F)(F)C3)cn2)ns1` [Compound 137, 3-(5-(3,3-difluorocyclo-butoxy)pyridin-2-yl)-N-(3-methoxypyridin-2-yl)-1,2,4-thiadiazol-5-amine], for which the pIC50 under setting [1] was 5.30 to 6.30. Regarding `CC(=O)N(C)c1cccnc1Nc1nc(-c2ccc(OC3COC3)cn2)ns1` [Compound 326, N-methyl-N-(2-(3-(5-(oxetan-3-yloxy)pyridin-2-yl)-1,2,4-thiadiazol-5-ylamino)pyridin-3-yl)acetamide], the negative-log IC50 (pIC50) under setting [2] is 5.30 to 6.30. With `Cc1nccnc1Nc1nc(-c2ccc(OC(C)C)cn2)ns1` [Compound 135, 3-(5-isoprop-oxypyridin-2-yl)-N-(3-methyl-pyrazin-2-yl)-1,2,4-thia-diazol-5-amine], the pIC50 under setting [1] was greater than 6.70. Regarding `CC(C)OC(=O)c1cccnc1Nc1nc(-c2ccc(OC(C)C)cn2)ns1` [Compound 327, isopropyl 2-(3-(5-isopropoxypyridin-2-yl)-1,2,4-thiadiazol-5-ylamino)nicotinate], the pIC50 under setting [2] is 5.30 to 6.30. Consider `CC(C)c1cnc(Nc2nc(-c3cc(OC4CC4)ccn3)ns2)cc1C(F)(F)F` [Compound 96, 3-(4-cycloprop-oxypyridin-2-yl)-N-(5-isopropyl-4-(trifluoromethyl)pyridin-2-yl)-1,2,4-thiadiazol-5-amine], for which the pIC50 under setting [1] was greater than 6.70. `CC(=O)N(C)c1cc(C(F)(F)F)cnc1Nc1nc(-c2cc3c(cn2)N(C)C(C)(C)C3)ns1` [Compound 291, N-methyl-N-(5-(trifluoromethyl)-2-(3-(1,2,2-trimethyl-2,3-dihydro-1H-pyrrolo[2,3-c]pyridin-5-yl)-1,2,4-thiadiazol-5-ylamino)pyridin-3-yl)acetamide]: the pIC50 under setting [2] was greater than 6.70.

On to `CC(=O)N(C)c1cc(C(F)(F)F)cnc1Nc1nc(-c2cc(OC(C)C)ccn2)ns1` [Compound 317, N-(2-(3-(4-isopropoxypyridin-2-yl)-1,2,4-thiadiazol-5-ylamino)-5-(trifluoromethyl)pyridin-3-yl)-N-methylacetamide], for which the pIC50 under setting [2] is greater than 6.70. For the compound `CNc1cccnc1N(C)c1nc(-c2ccc(OC(C)C)cn2)ns1` [Compound 159, N2-(3-(5-isopropoxy-pyridin-2-yl)-1,2,4-thiadiazol-5-yl)-N2,N3-dimethyl-pyridine-2,3-diamine], under setting [1], the pIC50 was 5.30 to 6.30. Turning to `COc1ccc(-c2nnc(Nc3cc(OC(C)C)ccn3)s2)nc1` [Compound 243, N-(4-isoprop-oxypyridin-2-yl)-5-(5-methoxy-pyridin-2-yl)-1,3,4-thiadiazol-2-amine], the negative logarithm of the IC50 (pIC50) under setting [2] is 5.30 to 6.30. `CC(=O)Nc1ncc(C(F)(F)F)cc1N(C)c1nnc(-c2ccc(OC(C)C)cn2)o1` [Compound 319, N-(3-((5-(5-isopropoxypyridin-2-yl)-1,3,4-oxadiazol-2-yl)(methyl)amino)-5-(trifluoromethyl)pyridin-2-yl)acetamide]: the pIC50 under setting [2] is 5.30 to 6.30. Turning to `CNc1cccnc1Nc1nc(-c2ccc(OC(C)C)cn2)ns1` [Compound 108, N2-(3-(5-isopropoxypyridin-2-yl)-1,2,4-thiadiazol-5-yl)-N3-methyl-pyridine-2,3-diamine], the pIC50 under setting [1] was 6.30 to 6.70. `CN1CCC(Oc2ccc(-c3nsc(Nc4ncccc4F)n3)nc2)CC1` [Compound 30, N-(3-fluoro-pyridin-2-yl)-3-(5-(1-methyl-piperidin-4-yloxy)pyridin-2-yl)-1,2,4-thiadiazol-5-amine]: the pIC50 under setting [1] was greater than 6.70.

Consider `Cc1cccnc1N(C)c1nc(-c2ccc(OC(C)C)cn2)ns1` [Compound 98, 3-(5-isopropoxy-pyridin-2-yl)-N-methyl-N-(3-methylpyridin-2-yl)-1,2,4-thiadiazol-5-amine], for which, under setting [1], the pIC50 was 6.30 to 6.70.

For the compound `CC(=O)N(C)c1cccnc1Nc1nc(-c2cc(C(C)C)ccn2)ns1` [Compound 216, N-(2-(3-(4-iso-propylpyridin-2-yl)-1,2,4-thiadiazol-5-ylamino)pyridin-3-yl)-N-methyl-acetamide], the pIC50 under setting [2] was 6.30 to 6.70. On to `CC(C)Oc1cnc(-c2nsc(Nc3ncccc3C(C)C)n2)cc1C(N)=O` [Compound 198, 5-isopropoxy-2-(5-(3-isopropylpyridin-2-ylamino)-1,2,4-thiadiazol-3-yl)isonicotin-amide], for which the pIC50 under setting [2] was 5.30 to 6.30. `CC(C)Oc1ccc(-c2nsc(Nc3ncccc3C(=O)N3CCCC3)n2)nc1` [Compound 190, (2-(3-(5-isoprop-oxypyridin-2-yl)-1,2,4-thiadiazol-5-ylamino)pyridin-3-yl) (pyrrolidin-1-yl) methanone]: the pIC50 under setting [1] was 6.30 to 6.70.

Consider `Cc1cccnc1Nc1nc(-c2ccc(C(=O)N3CCCC3)cn2)ns1` [Compound 61, (6-(5-(3-methyl-pyridin-2-ylamino)-1,2,4-thiadiazol-3-yl)pyridin-3-yl) (pyrrolidin-1-yl)methanone], for which the pIC50 under setting [1] is 6.30 to 6.70. For the compound `COc1ccnc(-c2nsc(Nc3ncc(C(F)(F)F)cc3N(C)C(C)=O)n2)c1` [Compound 318, N-(2-(3-(4-methoxypyridin-2-yl)-1,2,4-thiadiazol-5-ylamino)-5-(trifluoromethyl)pyridin-3-yl)-N-methylacetamide], the pIC50 under setting [2] was greater than 6.70. For the compound `FC(F)(F)c1ccnc(-c2nsc(Nc3cc(N4CCCC4)ccn3)n2)c1` [Compound 99, N-(4-(pyrrolidin-1-yl)pyridin-2-yl)-3-(4-(trifluoromethyl)pyridin-2-yl)-1,2,4-thiadiazol-5-amine], the pIC50 under setting [1] is 5.30 to 6.30. On the same count and under the same terms, to `Cc1cccnc1Nc1nc(-c2ccc(OC3CCN(C)CC3)cn2)no1` [Compound 21, 3-(5-(1-methyl-piperidin-4-yloxy)pyridin-2-yl)-N-(3-methylpyridin-2-yl)-1,2,4-oxadiazol-5-amine] belongs greater than 6.70. Consider `CC(=O)N(C)c1cnc(Nc2nc(-c3cc4c(cn3)N(C(C)C)CC4)ns2)c(C(F)(F)F)c1` [Compound 299, N-(6-(3-(1-isopropyl-2,3-dihydro-1H-pyrrolo[2,3-c]pyridin-5-yl)-1,2,4-thiadiazol-5-ylamino)-5-(trifluoromethyl)pyridin-3-yl)-N-methylacetamide], for which, under setting [2], the pIC50 is greater than 6.70. As to `CN1CCC(Oc2ccc(Nc3nc(-c4ccccn4)ns3)nc2)CC1` [Compound 11, N-(5-(1-methyl-piperidin-4-yloxy)pyridin-2-yl)-3-(pyridin-2-yl)-1,2,4-thiadiazol-5-amine], the pIC50 under setting [1] was 5.30 to 6.30. As for `CC(C)c1cnc(Nc2nc(-c3cc4c(cn3)N(C)CC4)ns2)c(C(F)(F)F)c1` [Compound 323, N-(5-isopropyl-3-(trifluoromethyl)pyridin-2-yl)-3-(1-methyl-2,3-dihydro-1H-pyrrolo[2,3-c]pyridin-5-yl)-1,2,4-thiadiazol-5-amine], the pIC50 under setting [2] is greater than 6.70. Turning to `Cc1cccnc1Nc1nc(-c2cc(OC(C)C)c(C(F)(F)F)cn2)ns1` [Compound 152, 3-(4-isoprop-oxy-5-(trifluoromethyl)pyridin-2-yl)-N-(3-methylpyridin-2-yl)-1,2,4-thia-diazol-5-amine], the pIC50 under setting [1] is 6.30 to 6.70.
